Tests used:
endothelial cells = assay: Other aspects of endothelial cell phenotype (collagen, metalloproteinase/TIMP-1, invasion, tube formation, chemotaxis); assay type: cell-based
Experimental: Relaxin was then assayed for the ability to induce proliferation of endothelial cells directly. Relaxin's potential mitogenic effect was tested on human primary umbilical vein, aortic, foreskin, and pulmonary endothelial cells, as well as rat aortic endothelial cells. […] Alterations in other aspects of endothelial cell phenotype that are believed to correlate with angiogenesis were also tested. Relaxin had no effect on collagen expression, judged by SDS-PAGE of ^3H-proline-labeled cellular proteins; or metalloproteinase or tissue inhibitor of metalloproteinase-1 secretion, assessed by gelatin zymography. […] Therefore, relaxin had no apparent effect directly on endothelial cells.

db/db mice = assay: Full thickness wound healing in db/db mice; assay type: in vivo, mouse
Experimental: To determine whether rhRlx would improve healing in this model of impaired healing, standardized full thickness (1.5 cm×1.5 cm) wounds were made on the back of db/db mice (Jackson Laboratories, Bar Harbor, Me.). Mice were treated continuously for 21 days with rhRlx via a subcutaneously implanted Alzet pump at a dose of either 0.1 mg/kg/day or 0.2 mg/kg/day. Wound areas were measured in the course of the study. Healing is presented as wound area on day 14 relative to the original size of the wound on day 0 and is calculated as: % of original wound area=[Area on day 14/area on day 0]×100. […] Wound closure was expressed as “% of original wound area.” There were 8-20 animals per group. Wound closure was 91.4% in control group vs. 64% in the relaxin-treated group (p<0.05 by Student-Newman-Kuels test). The differences in the extent of wound healing were small among vehicle control and low dose of rhRlx treatment as well as PDGF (5 μg/wound/day for 5 days) treated mice.
At day 21-post surgery, the wounds were also excised and fixed in formalin prior to paraffin embedding. Sections from the middle of the wound were stained with Masson's trichrome and evaluated by two investigators. […] Inflammatory cell accumulation was present at the wound edges.
Neovascularization is a key component of granulation tissue formation. New blood vessel formation is stimulated by a variety of growth factors including bFGF, and VEGF. […] Immunohistochemical staining of the midsection of full thickness wounds using polyclonal antibody to von Willebrand factor VIII-related antigen was used to identify new blood vessels in the wounds.

small renal arteries = assay: Myogenic reactivity of isolated small renal arteries, pressurized arteriograph; assay type: in vivo, rat; settings: female rats administered rhRLX for 5 days (FIG. 14)
Source text: Myogenic reactivity is a dynamic and complex integrative vascular behavior which can be assessed in small renal arteries utilizing the pressurized arteriograph. Equivalent tone was first established in all vessels by constricting them to 75% of their baseline diameter at 60 mm Hg using the adrenergic agonist, phenylephrine. Next the arteries which began at an initial pressure of 20 mm Hg were subjected to a rapid increase in transmural pressure of 20 mm Hg increments in the absence of flow. […] This blunted myogenic reactivity following rhRLX treatment of nonpregnant rats mimics pregnancy (Gandley RE, Conrad KP, McLaughlin MK. Am J Physiol Integrative Comp Physiol 280:R1-R7, 2001). Morever, as during pregnancy, this blunted myogenic reactivity can be reversed by adding inhibitors of nitric oxide to the vessel bath.

For “rhRLX: recombinant human relaxin, identical in amino acid sequence to the product of the human H2 gene; A chain of 24, B chain of 29 amino acids”, the chemotaxis in vitro (endothelial cells) was “nor did it induce chemotaxis”, the collagen expression (endothelial cells; SDS-PAGE of 3H-proline-labeled cellular proteins) was “no effect” and the “ability of endothelial cells to invade the substrate or to form tube structures” value (endothelial cells; Type I collagen or Matrigel substrate) was “no effect”. For the same substance, the “metalloproteinase or tissue inhibitor of metalloproteinase-1 secretion” value (endothelial cells; gelatin zymography) was “no effect”, the “Wound closure, % of original wound area” value (db/db mice; 0.2 mg/kg/day, day 14) was 64% and the “staining for von Willebrand factor VIII-related antigen (new blood vessels)” value (db/db mice; compared to wounds of vehicle treated animals) was “stronger positive staining”. The “wound histology, Masson's trichrome” value (db/db mice; day 21-post surgery) was “thick, cellular and vascular granulation tissue”, the “differences in the extent of wound healing vs vehicle control” value (db/db mice; low dose of rhRlx (0.1 mg/kg/day)) was “small” and the “myogenic reactivity ex vivo” value (small renal arteries) was “reduced myogenic reactivity”.
